Series [1] concerns HBV. Nature of the series: HBV antiviral assay in confluent 2.2.15 cell cultures (HBV DNA, quantitative blot hybridization). It counts as cell-based, Hepatitis B Virus.
Series [2] can be described thus: Cytotoxicity by neutral red dye uptake in 2.2.15 cells. As to conditions: human. How it is done: (§1) HBV antiviral assays were conducted as previous described (Korba and Gerin, 1992).
(§2) EC50, EC90 and CC50 values (±standard deviations [S.D.]) were calculated by linear regression analysis using data combined from all treated cultures (Korba and Gerin, 1992; Okuse et al., 2005). […] Selectivity index (S.I.) was calculated as CC50/EC90 for HBV assays and CC50/EC50 for HCV assays. EC90 values were used for calculation of the S.I. in HBV assays since at least a […] depression of HBV DNA levels is typically required to achieve statistical significance in this assay system (Korba and Gerin, 1992). For combination treatments, EC50, EC90, CC50 and S.I. are presented for the first compound listed. The molar ratio of the compounds in each combination is also indicated.

Series [3] concerns HCV replicon, sub-genomic CON1, genotype 1b. Kind of series: 3-day HCV replicon assay in AVA5 cells (intracellular HCV RNA, blot hybridization). It counts as cell-based, Hepatitis C Virus. As to conditions: for EC50 / EC90: 3 days, first compound listed for combinations. The method, then:
(§3) Antiviral activity of test compounds was assessed in a 3-day assay using the stably-expressing HCV replicon cell line, AVA5 (sub-genomic CON1, genotype 1b) (Blight et al., 2000) maintained as sub-confluent cultures on 96-well plates as previously described (Okuse et al., 2005). Antiviral activity was determined by blot hybridization analysis of intracellular HCV RNA (normalized to the level of cellular B-actin RNA in each culture sample) and cytotoxicity was assessed by neutral red dye uptake after 3 days of treatment. Additional studies were performed using Huh7 cells containing another HCV replicon, H/FL-Neo, a genotype 1a full length construct (Blight et al., 2003). For studies involving human serum, standard culture medium (which contains 10% fetal bovine serum) and assay conditions were maintained.
as §2
For orientation: Replicon systems follow genome replication, usually without infectious particles.

Series [4] is described as follows: Cytotoxicity by neutral red dye uptake in AVA5 cells. As to conditions: human, AVA5 cells (HCV replicon, sub-genomic CON1), Genotype 1b replicon. It counts as cell-based.
Series [5] relates to HCV replicon. Nature of the series: Primary HCV replicon cell assay. The class given is cell-based, Hepatitis C Virus. As to conditions: Hepatitis C virus. The method, then:
as §3, §2

Series [6] is described as follows: Primary HCV replicon cell assay, cytotoxicity. As to conditions: human, HCV replicon cells (primary assay), CC50, primary assay. How it is done:
as §3, §2

The subject of series [7] is HCV replicon genotype 1B. Kind of series: Secondary HCV replicon cell assay, genotype 1B. The class given is cell-based, Hepatitis C Virus. An excerpt:
(§4) Table 10 presents data from the secondary HCV replicon cell assays using genotypes 1B and 1A.

For series [8], the system named is HCV replicon cells, genotype 1B. Nature of the series: Secondary HCV replicon cell assay, genotype 1B, cytotoxicity. It counts as cell-based.
Source text: as §4

The subject of series [9] is HCV replicon genotype 1A. Kind of series: Secondary HCV replicon cell assay, genotype 1A. The class given is cell-based, Hepatitis C Virus.
Source text: as §4

Series [10] has as its system HCV replicon cells, genotype 1A. Nature of the series: Secondary HCV replicon cell assay, genotype 1A, cytotoxicity. It counts as cell-based.
Source text: as §4

For series [11], the system named is 2.2.15 cells. Kind of series: Cytotoxicity by neutral red dye uptake in 2.2.15 cells. As to conditions: confluent 2.2.15 cultures, nine daily doses, neutral red uptake. How it is done: as §1, §2
Series [12] relates to Wild-type HBV. Nature of the series: 5-day transient transfection assay in Huh7 cells, intracellular HBV RI by Southern blot. It counts as cell-based, Hepatitis B Virus. As to conditions: Wild-type, Huh7 transient transfection.
The subject of series [13] is HBV Mutant L180M/M204V. Described as above. It counts as cell-based, Hepatitis B Virus. As to conditions: L180M/M204V. The method, then: (§5) Activity against LMV-resistant (Allen et al., 1998) and ADV-resistant (Angus et al., 2003) HBV mutants was performed in a 5-day assay using a transient transfection method as previously described (Iyer et al., 2004). Antiviral activity was determined by quantitative Southern blot hybridization of intracellular HBV DNA replication intermediates (HBV RI).

Series [14] has as its system HBV Mutant L180M. The series is described as above. The class given is cell-based, Hepatitis B Virus. As to conditions: L180M. How it is done:
as §5

For series [15], the system named is HBV Mutant M204I. Described as above. It counts as cell-based, Hepatitis B Virus. As to conditions: M204I. The method, then: as §5
The subject of series [16] is HBV Mutant M204V. The description is as above. The class given is cell-based, Hepatitis B Virus. As to conditions: M204V. The method, then: as §5
Series [17] has as its system HBV Mutant N236T. Described as above. As to conditions: N236T. The class given is cell-based, Hepatitis B Virus. The method, then:
as §5

Series [18] has as its system LMV-resistant and ADV-resistant HBV mutants. Nature of the series: Activity against drug-resistant HBV mutants, transient transfection in Huh7 cells (overall statement). The class given is cell-based, Hepatitis B Virus. As to conditions: all drug-resistant viruses tested. The method, then:
as §5

The test system of series [19] is AVA5 cells. Nature of the series: Cytotoxicity by neutral red dye uptake in AVA5 cells. It counts as cell-based. As to conditions: Genotype 1b replicon, 3 days.
The mark [20] stands for this setting: Hepatitis C virus, Ava5, 72 h, Genotype 1b replicon.

Like-named read-outs stand apart in the source and are kept apart here. A value given as a limit tells only on which side of the number the result lay.

As usually defined, the EC50 is the concentration giving half of the maximal effect. For orientation: EC90 means the point of the concentration-response curve where the effect stands at 90%. In general, CC50 refers to the concentration giving 50% cytotoxicity. For the molecule `CS(=O)(=O)c1cnc(NC(=O)c2ccccc2O)s1` [Compound 6, 2-hydroxy-N-(5-(methylsulfonyl)thiazol-2-yl)benzamide], the concentration giving a half-maximal response (EC50) in [1] (Hepatitis B virus, read-out: Intracellular HBV RI EC50) was over 10000 nM; in series [1] (Hepatitis B virus, 2.2.15 cells, nine daily doses, read-out: Extracellular virion DNA EC50), over 10000 nM; in series [3] (setting [20]) it was 40 ± 5 nM; in series [5], 1500 nM; in [7], 890 nM; in [9], 800 nM. In addition, the concentration for an effect of 90% (EC90) in [1] (Hepatitis B virus, 2.2.15 cells, nine daily doses, read-out: Extracellular virion DNA EC90) is over 10 µM; in [1] (Hepatitis B virus, 2.2.15 cells, nine daily doses, read-out: Intracellular HBV RI EC90) it was over 10 µM; in series [3] (setting [20]), 590 ± 70 nM; in [5] it was 5.2 µM; in series [7] (Hepatitis C virus), 8.8 µM; in [9], 3.4 µM. Also, in series [2], the CC50 at 9 days is over 100 µM. In addition, the “Selectivity Index” value in series [3] (Genotype 1b replicon, CC50/EC50) came to 74. Moreover, the “activity against HCV” value in series [3] (among the other thiazolides) is “exhibited activity”. In addition, the figures for the CC50 at 3 days in series [4] and in series [6] were 2800 ± 300 nM and 43 µM, respectively. In addition, the CC50 in [8] and in [10] was over 10 µM in each case.

In the case of `Cc1ccc(O)c(C(=O)Nc2ncc(Cl)s2)c1` [RM4850], the EC50 in [1] (2.2.15 cells, nine daily doses, read-out: Extracellular virion DNA EC50) was found to be 330 ± 70 nM; in series [1] (2.2.15 cells, nine daily doses, read-out: Intracellular HBV RI EC50), 900 ± 100 nM; in series [12] (read-out: EC50) it was 730 ± 80 nM; in [13] (read-out: EC50), 870 ± 110 nM; in series [14] (read-out: EC50) it was 830 ± 90 nM; in [15] (read-out: EC50), 1000 ± 200 nM. Besides, the EC50 was 800 ± 100 nM in series [16] (read-out: EC50), 670 ± 80 nM in series [17] (read-out: EC50) and over 20000 nM in series [3] (Genotype 1b replicon). Further, the EC90 in [1] (2.2.15 cells, nine daily doses, read-out: Extracellular virion DNA EC90) was 0.83 ± 0.1 µM; in [12], 2000 ± 300 nM; in series [13] (read-out: EC90), 2100 ± 300 nM; in series [14] (read-out: EC90) it was 2200 ± 200 nM; in [15] (read-out: EC90) it was 2400 ± 300 nM; in series [16] (read-out: EC90), 2100 ± 300 nM. The 90% effect concentration (EC90) in series [17] (read-out: EC90) was 2200 ± 200 nM; in series [3] (Genotype 1b replicon) it was over 20000 nM. Moreover, the values for the CC50 in series [11] and in series [19] were over 100 µM and 2300 ± 200 nM, respectively. Besides, the “differences in potency against drug-resistant viruses relative to wild-type HBV” value in [18] is on record as “No significant differences”.

The record behind these values is patent publication US8895752B2, “Alkylsulfonyl-substituted thiazolide compounds” (priority 2007, dated 2014).
